1 molecule from patent publication US10307357B2, “Prebiotic oral care compositions containing an alkyl glycoside” (COLGATE-PALMOLIVE COMPANY, priority 2013, dated 2019) can be followed below.

Molecules are shown by their SMILES.

Common to all, as to assay type: cell-based
Assay [1] relates to periodontopathogens. The assay can be described thus: Mixed culture competition, conclusion over periodontopathogens. To be noted: S. salivarius and β-methyl-D-galactoside added (C) compared with A, B, after 24 h and 48 hours, p<0.001. As to the method:
(§1) The pathogenic species Prevotella intermedia, Aggregatibacter actinomyctemcomitans, Porphyromonas gingivalis, Fusobacterium nucleatum, Streptococcus mutans and beneficial species Streptococcus salivarius are used as model organisms for experiments. Bacterial strains are grown on blood agar plates (Oxoid, Basingstoke, UK) supplemented with 5 μg/ml hemin (Sigma Chemical Co, St. Louis, Mo.), 1 μg/ml menadion and 5% sterile horse blood (Biotrading, Keerbergen, Belgium). Bacteria are collected from blood agar plates and transferred to 10 ml brain heart infusion broth (BHI) (Difco Laboratories, Detroit, Mich.). P. intermedia, P. gingivalis, and F. nucleatum were incubated overnight at 37° C. in an anaerobic atmosphere, A. actinomycetemcomitans, S. mutans and S. salivarius are incubated overnight at 37° C. in a 5% CO2 environment. Bacterial concentration is adjusted by measuring optical density at 600 nm.
In vitro effect of β-methyl-D-galactoside on pathogens: Bacterial solutions of periodontopathogens, P. intermedia, F. nucleatum, A. actinomycetemcomitans and P. gingivalis, cariogenic species S. mutans and beneficial species, S. salivarius, are prepared of which the optical density was adjusted to 1×10^7 CFU/ml. Experiments are carried out as a dual-species model in 24 well plates containing one pathogen (1 ml) and S. salivarius (1 ml). […]

Assay [2] deals with Aggregatibacter actinomycetemcomitans. The assay can be described thus: Mixed culture (dual-species) competition, selective plating. Particulars: C: with S. salivarius; after only 24 h. As for the experimental part: as §1
(§2) In vitro effect of β-methyl-D-galactoside on pathogens: Bacterial solutions of periodontopathogens, P. intermedia, F. nucleatum, A. actinomycetemcomitans and P. gingivalis, cariogenic species S. mutans and beneficial species, S. salivarius, are prepared of which the optical density was adjusted to 1×10^7 CFU/ml. Experiments are carried out as a dual-species model in 24 well plates containing one pathogen (1 ml) and S. salivarius (1 ml). Different conditions are tested: the two microorganisms with (C) or without (D) β-methyl-D-galactoside (200 μl, dissolved in AD (aqua distillata)), only the periodontopathogen with (B) or without (A) β-methyl-D-galactoside (200 μl). β-methyl-D-galactoside is used at a final concentration of 1 mg/ml. When S. salivarius is not added to the mixture, BHI is added to obtain an equal volume. When β-methyl-D-galactoside is not added to the mixture, AD was added to obtain an equal volume. Plates are incubated at 37° C. in an anaerobic atmosphere. Selective microbial plating is carried out at 0 h, 24 h, and 48 h. Selective agar plates are prepared for each bacterium. P. intermedia and P. gingivalis are cultured on CDC anaerobe 5% sheep blood agar (Becton Dickinson, Franklin Lakes, N.J.), A. actinomycetemcomitans on Tryptic soy serum bacitracin vancomycin agar (TSBV) (Oxoid, Basingstoke, UK), F. nucleatum on crystal violet erythromycin (CVE) agar (Oxoid, Basingstoke, UK), S. mutans on tryptone yeast extract cystine sucrose bacitracin (TYCSB) agar (Oxoid, Basingstoke, UK) and S. salivarius on Phenylethyl alcohol agar (Becton Dickinson, Franklin Lakes, N.J.).
(§3) Statistical analysis: For statistical analysis of the data, the data are log10 transformed to obtain a normal distribution. A linear mixed model is built to assess differences between treatments. A correction for multiple hypothesis testing is carried out.

The test system of assay [3] is Prevotella intermedia. The assay is described as above. Particulars: C: with S. salivarius; after 48 h. As for the experimental part:
as §1, §2, §3

The test system of assay [4] is Fusobacterium nucleatum. Described as above. Particulars: C: with S. salivarius; after 48 h. As to the method:
as §1, §2, §3

For assay [5], the system named is Streptococcus mutans. Described as above. To be noted: β-methyl-D-galactoside and S. salivarius present; p=0.9999. As for the experimental part:
as §1, §2, §3

Assay [6] concerns Porphyromonas gingivalis. The assay is described as above. Particulars: C: with S. salivarius; after only 24 h. As for the experimental part: as §1, §2, §3
Assay [7] deals with beneficial oral and pathogenic oral bacteria. The assay can be described thus: Twenty-four hour optical density, conclusion over the panel. To be noted: at concentrations of 10, 20 and 25 μmol/ml; threshold 1.25. From the text: Substrates that were able to increase the growth (or maximal growth density or extent of growth) of at least one of the above beneficial bacteria while not or only minimally increasing the growth (or maximal growth density) of the pathogenic bacteria are considered to be prebiotic compounds. The extent of growth of the tested bacteria in response to selected glycosides (β-methyl-D-galactoside and α-methyl-D-galactoside) was investigated by setting up growth curves in a nutritionally rich medium (brain heart infusion broth (BHI), Oxoid), over 24 hours. […] For each combination of bacterium/glycoside, and for each of their respective controls (i.e. the particular bacterium in the nutritionally rich medium with no glycoside), the optical density was measured at 630 nm (OD630) at 0 h and 24 h (Thermo Scientific Multiskan Ascent). Additionally, the OD630 for combinations of bacterium/glycosides grown in a 5% CO2 environment were also measured every hour between 0 h and 9 h. […] For each day and for each combination, the average (mean) of the values obtained (as detailed above) for the four technical replicas was calculated to provide a single value for each combination on each day. […]

In the case of `CO[C@@H]1O[C@H](CO)[C@H](O)[C@H](O)[C@H]1O` [β-methyl-D-galactoside], in assay [1], the “number of periodontopathogens, in words” value is listed as “significant decrease”. Further, the “concentration of pathogen, in words” value in assay [2] and in assay [6] was “decline in concentration to zero” throughout. In addition, the “pathogen numbers, in words” value in assay [3] and in assay [4] was “significantly lower but remained slightly above zero” in each case. Moreover, the “reduction of pathogen, in words” value in assay [5] was “no reduction is observed”. The “prebiotic effect (extent of growth), in words” value in assay [7] was “exhibited prebiotic effects”.
